According to the supplement of paper PMC11061612:

Tests used:
Assay in all cases: combination Emax (second highest fraction inhibited in the dose matrix, 72 h); higher = more inhibition; extreme values may be limits of the assay
[1] = test system: OACp4C (Esophageal Adenocarcinoma)
How it was run: (§1)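 Bliss excess equals the observed combination effect minus the expected value EA + EB − EA·EB, where EA and EB are the effects of each agent alone. Combination Emax is the second-highest inhibition within the matrix. Inhibition was scaled from CellTiter-Glo 2.0 luminescence, with 0 set by vehicle wells and 1 by blank wells, after 72 hours of two-drug dosing of cells plated in 1536-well plates.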

[2] = test system: NCI-H716 (Colorectal Carcinoma)
How it was run: as §1

[3] = test system: LU-165 (Small Cell Lung Carcinoma)
How it was run: as §1

[4] = test system: JIMT-1 (Breast Carcinoma)
How it was run: as §1

[5] = test system: CA46 (Burkitt's Lymphoma)
How it was run: as §1

[6] = test system: 22RV1 (Prostate Carcinoma)
How it was run: as §1

[7] = test system: EW-7 (Ewing's Sarcoma)
How it was run: as §1

[8] = test system: NCI-H1651 (Lung Adenocarcinoma)
How it was run: as §1

[9] = test system: MDA-MB-436 (Breast Carcinoma)
How it was run: as §1

[10] = test system: LS-411N (Colorectal Carcinoma)
How it was run: as §1

[11] = test system: A2780 (Ovarian Carcinoma)
How it was run: as §1

[12] = test system: GCT (Other Solid Carcinomas)
How it was run: as §1

[13] = test system: JHH-2 (Hepatocellular Carcinoma)
How it was run: as §1

[14] = test system: huH-1 (Hepatocellular Carcinoma)
How it was run: as §1

[15] = test system: AU565 (Breast Carcinoma)
How it was run: as §1

[16] = test system: CAL-27 (Oral Cavity Carcinoma)
How it was run: as §1

[17] = test system: KYSE-140 (Esophageal Squamous Cell Carcinoma)
How it was run: as §1

[18] = test system: NCI-H1703 (Squamous Cell Lung Carcinoma)
How it was run: as §1

[19] = test system: PEO1 (Ovarian Carcinoma)
How it was run: as §1

| Compound | combination Emax [1] | combination Emax [2] | combination Emax [3] | combination Emax [4] | combination Emax [5] | combination Emax [6] | combination Emax [7] | combination Emax [8] | combination Emax [9] | combination Emax [10] | combination Emax [11] | combination Emax [12] | combination Emax [13] | combination Emax [14] | combination Emax [15] | combination Emax [16] | combination Emax [17] | combination Emax [18] | combination Emax [19] |
| --- | --- | --- | --- | --- | --- | --- | --- | --- | --- | --- | --- | --- | --- | --- | --- | --- | --- | --- | --- |
| NC1(C(=O)N[C@@H](CCO)c2ccc(Cl)cc2)CCN(c2ncnc3[nH]ccc23)CC1 [Capivasertib] + Cn1cnc2c(F)c(Nc3ccc(Br)cc3Cl)c(C(=O)NOCCO)cc21 [Selumetinib] (first compound max 10 µM, 7x7, partner max 10 µM) | 0.987 | 0.783 | 0.444 | 0.407 | 0.2 | 0.625 | 0.682 | 0.177 | 0.388 | 0.786 | 0.828 | 0.753 | 0.674 | 0.464 | 0.64 | 0.815 | 0.873 | 0.606 | 0.56 |
| CS(=O)(=O)CCNCc1ccc(-c2ccc3ncnc(Nc4ccc(OCc5cccc(F)c5)c(Cl)c4)c3c2)o1 [Lapatinib] + C[C@@H](Oc1cc(-c2cnn(C3CCNCC3)c2)cnc1N)c1c(Cl)ccc(F)c1Cl [Crizotinib] (first compound max 10 µM, 7x7, partner max 10 µM) | 1 | 0.837 | 0.441 | 0.851 | 0.861 | 0.706 | 0.956 | 0.566 | 0.248 | 0.584 | 0.98 | 0.903 | 0.882 | 0.671 | 0.959 | 0.958 | 0.881 | 0.746 | 0.718 |
| CS(=O)(=O)CCNCc1ccc(-c2ccc3ncnc(Nc4ccc(OCc5cccc(F)c5)c(Cl)c4)c3c2)o1 [Lapatinib] + NC1(c2ccc(-c3nc4ccn5c(=O)[nH]nc5c4cc3-c3ccccc3)cc2)CCC1 [MK-2206] (first compound max 10 µM, 7x7, partner max 10 µM) |  |  | 0.453 |  |  | 0.835 | 0.965 | 0.442 | 0.461 | 0.295 | 0.909 |  | 0.9 |  |  |  |  | 0.756 | 0.348 |
| CC(=O)c1c(C)c2cnc(Nc3ccc(N4CCNCC4)cn3)nc2n(C2CCCC2)c1=O [Palbociclib] + CC1(C)CCC(CN2CCN(c3ccc(C(=O)NS(=O)(=O)c4ccc(NCC5CCOCC5)c([N+](=O)[O-])c4)c(Oc4cnc5[nH]ccc5c4)c3)CC2)=C(c2ccc(Cl)cc2)C1 [Venetoclax] (first compound max 10 µM, 7x7, partner max 1 µM) | 0.217 | 0.475 | 0.115 | 0.107 | 0.355 | 0.382 | 0.409 | 0.0383 | 0.164 | 0.153 | 0.721 | 0.313 | 0.357 | 0.119 | 0.262 | 0.0994 | 0.199 | 0.486 | 0.194 |
